US11330821B2, “Herbicidal compounds” (Syngenta Participations AG, priority 2015, dated 2022)

What was measured:
Format in all cases: in vivo
Conditions in all cases: post-emergence spray, evaluated after 13 days
[1] = test system: Amaranthus retroflexus (AMARE); test: Post-emergence efficacy, Amaranthus retroflexus
Experimental: (§1) B1 Post-Emergence Efficacy
(§2) Seeds of a variety of test species are shown in standard soil in pots:—Solanum nigrum (SOLNI), Amaranthus retroflexus (AMARE), Setaria faberi (SETFA), Echinochloa crus-galli (ECHCG), Ipomoea hederacea (IPOHE), Lolium perenne (LOLPE). After 8 days cultivation (post-emergence) under controlled conditions in a glasshouse (at 24/16° C., day/night; 14 hours light; 65% humidity), the plants are sprayed with an aqueous spray solution derived from the formulation of the technical active ingredient in acetone/water (50:50) solution containing 0.5% Tween 20 (polyoxyethylene sorbitan monolaurate, CAS RN 9005-64-5). Compounds are applied at 1000 and 62.5 g/ha. The test plants are then grown in a glasshouse under controlled conditions in a glasshouse (at 24/16° C., day/night; 14 hours light; 65% humidity) and watered twice daily. After 13 days, the test is evaluated for the percentage damage caused to the plant. The biological activities are assessed on a five point scale (5=80-100%; 4=60-79%; 3=40-59%; 2=20-39%; 1=0-19%).

Solanum nigrum (SOLNI) = test: Post-emergence efficacy, Solanum nigrum
Experimental: as §1, §2

Setaria faberi (SETFA) = test: Post-emergence efficacy, Setaria faberi
Experimental: as §1, §2

Lolium perenne (LOLPE) = test: Post-emergence efficacy, Lolium perenne
Experimental: as §1, §2

[2] = test system: Echinochloa crus-galli (ECHCG); test: Post-emergence efficacy, Echinochloa crus-galli
Experimental: as §1, §2

[3] = test system: Ipomoea hederacea (IPOHE); test: Post-emergence efficacy, Ipomoea hederacea
Experimental: as §1, §2

Structure (SMILES)	AMARE percentage damage caused to the plant (five point scale) ([1]; 62.5 g/ha)	AMARE percentage damage caused to the plant (five point scale) ([1]; 1000 g/ha)	SOLNI percentage damage caused to the plant (five point scale) (Solanum nigrum (SOLNI); 62.5 g/ha)	SOLNI percentage damage caused to the plant (five point scale) (Solanum nigrum (SOLNI); 1000 g/ha)	SETFA percentage damage caused to the plant (five point scale) (Setaria faberi (SETFA); 62.5 g/ha)	SETFA percentage damage caused to the plant (five point scale) (Setaria faberi (SETFA); 1000 g/ha)	LOLPE percentage damage caused to the plant (five point scale) (Lolium perenne (LOLPE); 62.5 g/ha)	LOLPE percentage damage caused to the plant (five point scale) (Lolium perenne (LOLPE); 1000 g/ha)	ECHCG percentage damage caused to the plant (five point scale) ([2]; 62.5 g/ha)	ECHCG percentage damage caused to the plant (five point scale) ([2]; 1000 g/ha)	IPOHE percentage damage caused to the plant (five point scale) ([3]; 62.5 g/ha)	IPOHE percentage damage caused to the plant (five point scale) ([3]; 1000 g/ha)
Cc1nn(C)c(=O)c(-c2c(Cl)ccc(Cl)c2OCc2cncs2)c1O [Compound 1.06]	4 (4=60-79%)	5 (5=80-100%)	5 (5=80-100%)	5 (5=80-100%)	5 (5=80-100%)	5 (5=80-100%)	4 (4=60-79%)	5 (5=80-100%)	5 (5=80-100%)	5 (5=80-100%)	5 (5=80-100%)	5 (5=80-100%)
CC1=NN(C)C(=O)C(c2c(Cl)ccc(Cl)c2OCc2cnc(Cl)s2)C1=O (stereo not drawn) [Compound 1.19, 4-[3,6-dichloro-2-[(2-chlorothiazol-5-yl)methoxy]phenyl]-2,6-dimethyl-pyridazine-3,5-dione]	5 (5=80-100%)	5 (5=80-100%)	5 (5=80-100%)	5 (5=80-100%)	5 (5=80-100%)	5 (5=80-100%)	5 (5=80-100%)	5 (5=80-100%)	3 (3=40-59%)	5 (5=80-100%)	5 (5=80-100%)	5 (5=80-100%)
Cc1cnc(COc2c(Cl)ccc(Cl)c2-c2c(O)c(C)nn(C)c2=O)cn1 [Compound 1.21]	2 (2=20-39%)	3 (3=40-59%)	3 (3=40-59%)	4 (4=60-79%)	3 (3=40-59%)	5 (5=80-100%)	1 (1=0-19%)	2 (2=20-39%)	1 (1=0-19%)	4 (4=60-79%)	4 (4=60-79%)	5 (5=80-100%)
Cc1nn(C)c(=O)c(-c2c(Cl)ccc(Cl)c2OCc2ccncc2)c1O [Compound 1.03]	1 (1=0-19%)	4 (4=60-79%)	4 (4=60-79%)	5 (5=80-100%)	1 (1=0-19%)	5 (5=80-100%)	1 (1=0-19%)	4 (4=60-79%)	2 (2=20-39%)	5 (5=80-100%)	4 (4=60-79%)	4 (4=60-79%)
